Experiments:
[1] = biological target: T1, PfPdxK (pyridoxine/pyridoxal kinase) (Plasmodium falciparum, UniProt C6KT01); assay: kinase assay with [γ-33P]-ATP, recombinant purified PfPdxK, specific activity; assay type: biochemical
T1 construct: gene PF3D7_0616000; recombinant, strep tag

[2] = biological target: T2, PfODC (bifunctional P. falciparum AdoMetDC/ODC) (Plasmodium falciparum, UniProt Q8IJ77); assay: […]CO2 release from […]-L-ornithine by recombinant PfODC/AdoMetDC with […] PLP; assay type: biochemical; conditions: read-out: Inhibition of PfODC activity IC50-value [μM] ^a)
T2 construct: gene PF3D7_1033100; recombinant bifunctional P. falciparum AdoMetDC/ODC, strep tag
T2 sequence (Q8IJ77 1-72): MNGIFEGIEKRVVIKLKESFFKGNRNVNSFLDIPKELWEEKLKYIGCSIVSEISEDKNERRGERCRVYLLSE
T2 sequence (Q8IJ77 73-1434): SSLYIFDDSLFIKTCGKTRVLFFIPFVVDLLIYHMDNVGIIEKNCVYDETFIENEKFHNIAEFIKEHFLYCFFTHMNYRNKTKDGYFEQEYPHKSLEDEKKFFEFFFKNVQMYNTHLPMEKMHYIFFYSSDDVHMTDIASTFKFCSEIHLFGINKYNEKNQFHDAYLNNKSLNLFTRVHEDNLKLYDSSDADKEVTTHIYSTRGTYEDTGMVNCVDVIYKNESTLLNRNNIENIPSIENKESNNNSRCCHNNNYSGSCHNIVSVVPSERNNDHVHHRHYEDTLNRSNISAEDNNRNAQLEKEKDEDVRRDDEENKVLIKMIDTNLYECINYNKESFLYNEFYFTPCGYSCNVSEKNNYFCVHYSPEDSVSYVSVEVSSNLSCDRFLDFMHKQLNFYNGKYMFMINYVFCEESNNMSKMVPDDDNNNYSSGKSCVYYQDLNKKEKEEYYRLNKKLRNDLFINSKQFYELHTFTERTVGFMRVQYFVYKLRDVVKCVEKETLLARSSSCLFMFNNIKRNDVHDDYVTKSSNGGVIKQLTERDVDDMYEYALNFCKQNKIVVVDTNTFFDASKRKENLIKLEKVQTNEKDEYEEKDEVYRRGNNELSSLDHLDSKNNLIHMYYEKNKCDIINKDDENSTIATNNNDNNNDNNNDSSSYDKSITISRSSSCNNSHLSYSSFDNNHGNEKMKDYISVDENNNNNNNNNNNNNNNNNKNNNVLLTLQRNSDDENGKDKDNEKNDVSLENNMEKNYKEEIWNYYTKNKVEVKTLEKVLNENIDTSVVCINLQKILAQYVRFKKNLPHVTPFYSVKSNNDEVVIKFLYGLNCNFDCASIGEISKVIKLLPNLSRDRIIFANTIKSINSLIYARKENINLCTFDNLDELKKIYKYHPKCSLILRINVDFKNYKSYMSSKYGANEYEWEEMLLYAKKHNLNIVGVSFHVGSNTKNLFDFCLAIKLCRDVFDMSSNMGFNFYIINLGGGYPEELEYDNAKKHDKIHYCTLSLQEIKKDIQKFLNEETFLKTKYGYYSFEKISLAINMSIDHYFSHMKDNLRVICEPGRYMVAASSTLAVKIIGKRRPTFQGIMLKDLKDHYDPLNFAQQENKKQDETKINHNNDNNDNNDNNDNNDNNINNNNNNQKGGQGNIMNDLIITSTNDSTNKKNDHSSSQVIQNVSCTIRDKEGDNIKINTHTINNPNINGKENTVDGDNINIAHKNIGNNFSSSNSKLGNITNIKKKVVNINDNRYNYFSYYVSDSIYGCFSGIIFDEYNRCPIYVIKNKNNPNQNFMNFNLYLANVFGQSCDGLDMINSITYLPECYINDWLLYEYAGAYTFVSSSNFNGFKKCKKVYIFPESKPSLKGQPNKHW

T1 sequence (C6KT01 entry or part of it): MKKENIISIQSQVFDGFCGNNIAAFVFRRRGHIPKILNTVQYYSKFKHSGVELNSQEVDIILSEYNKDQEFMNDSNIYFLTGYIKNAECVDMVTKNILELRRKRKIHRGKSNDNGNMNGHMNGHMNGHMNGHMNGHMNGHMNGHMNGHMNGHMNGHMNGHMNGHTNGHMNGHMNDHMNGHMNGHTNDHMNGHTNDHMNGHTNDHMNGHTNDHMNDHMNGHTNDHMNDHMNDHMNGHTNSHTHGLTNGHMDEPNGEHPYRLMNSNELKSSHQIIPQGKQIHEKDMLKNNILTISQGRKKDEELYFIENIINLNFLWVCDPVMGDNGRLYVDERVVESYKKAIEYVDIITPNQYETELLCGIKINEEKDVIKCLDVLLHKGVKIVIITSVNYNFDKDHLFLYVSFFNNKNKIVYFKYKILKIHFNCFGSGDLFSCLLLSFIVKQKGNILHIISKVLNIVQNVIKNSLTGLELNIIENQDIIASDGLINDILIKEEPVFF

Row | Compound | Specific activity of PfPdxK (nmol min^-1 mg^-1) ^a) [1] [nmol/min/mg] | IC50 [2] [µM]
1 | COC(=O)C(Cc1c[nH]cn1)NCc1c(CO)cnc(C)c1O (centres unmarked) [PHME] | 64 ± 4 | 
2 | COC(=O)C(Cc1c[nH]cn1)NCc1c(COP(=O)(O)O)cnc(C)c1O (centres unmarked) [PPHME] |  | 58 ± 11
3 | COC(=O)C(Cc1c[nH]c2ccccc12)NCc1c(COP(=O)(O)O)cnc(C)c1O (centres unmarked) [PPT5] |  | 64 ± 13
4 | COC(=O)[C@@H]1Cc2c([nH]c3ccccc23)[C@H](c2c(CO)cnc(C)c2O)N1 [PT3] | 38 ± 4 | 
5 | COC(=O)C(Cc1c[nH]c2ccccc12)NCc1c(CO)cnc(C)c1O (centres unmarked) [PT5] | 20 ± 2 | 
